US9382197B2, “Substituted hydroxamic acids and uses thereof” (Millennium Pharmaceuticals, Inc., priority 2010, dated 2016)

Target: T1, purified human HDAC6 (Homo sapiens, UniProt Q9UBN7)
T1 construct: purchased BPS Bioscience 5006
T1 sequence (Q9UBN7 1-1215): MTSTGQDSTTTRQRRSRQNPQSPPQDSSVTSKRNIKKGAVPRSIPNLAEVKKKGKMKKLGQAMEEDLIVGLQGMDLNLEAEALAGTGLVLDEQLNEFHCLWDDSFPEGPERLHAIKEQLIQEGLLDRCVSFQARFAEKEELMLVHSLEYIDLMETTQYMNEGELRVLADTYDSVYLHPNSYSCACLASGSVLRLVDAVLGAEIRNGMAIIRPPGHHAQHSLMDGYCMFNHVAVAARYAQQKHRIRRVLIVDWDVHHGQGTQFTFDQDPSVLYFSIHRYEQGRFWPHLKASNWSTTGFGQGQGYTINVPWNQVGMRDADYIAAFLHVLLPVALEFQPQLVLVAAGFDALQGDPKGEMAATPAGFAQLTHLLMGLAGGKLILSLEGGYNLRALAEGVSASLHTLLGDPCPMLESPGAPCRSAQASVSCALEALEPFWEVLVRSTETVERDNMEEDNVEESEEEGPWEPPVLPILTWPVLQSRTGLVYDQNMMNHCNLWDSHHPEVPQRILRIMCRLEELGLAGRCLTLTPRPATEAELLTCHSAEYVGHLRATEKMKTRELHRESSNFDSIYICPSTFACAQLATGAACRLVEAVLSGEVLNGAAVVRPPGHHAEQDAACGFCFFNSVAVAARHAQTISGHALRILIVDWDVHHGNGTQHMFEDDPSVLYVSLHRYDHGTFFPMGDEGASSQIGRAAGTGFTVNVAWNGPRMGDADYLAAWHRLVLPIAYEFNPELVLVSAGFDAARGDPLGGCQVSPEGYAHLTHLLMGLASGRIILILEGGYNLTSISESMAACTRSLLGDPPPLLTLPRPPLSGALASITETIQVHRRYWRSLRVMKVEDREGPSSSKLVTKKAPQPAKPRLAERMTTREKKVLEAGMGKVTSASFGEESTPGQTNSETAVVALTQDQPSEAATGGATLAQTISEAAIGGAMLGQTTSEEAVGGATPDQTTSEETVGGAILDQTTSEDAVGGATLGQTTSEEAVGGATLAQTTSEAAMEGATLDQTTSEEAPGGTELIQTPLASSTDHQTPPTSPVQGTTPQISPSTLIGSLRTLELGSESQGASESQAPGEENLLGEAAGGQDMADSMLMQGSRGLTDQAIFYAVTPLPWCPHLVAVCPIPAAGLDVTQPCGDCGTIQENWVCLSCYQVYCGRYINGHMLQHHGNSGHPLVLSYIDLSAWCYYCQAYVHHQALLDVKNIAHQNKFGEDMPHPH
Test: HDAC6 Enzyme Assay
Assay type: biochemical
Method in brief: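 Purified human HDAC6 incubated 1 h at 30 °C with Ac-Arg-Gly-Lys(Ac)-AMC and compound; trichostatin A stop, trypsin release of AMC, fluorescence Ex 340/Em 460 nm. IC50 from concentration–response relative to DMSO.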

[1] = purified human HDAC6, substrate Ac-Arg-Gly-Lys(Ac)-AMC, 1 hour at 30° C., reported as bins

Cc1onc(-c2ccccc2)c1NC(=O)NC(C)c1ccc(C(=O)NO)cc1 (stereo not shown) [Compound I-305, N-hydroxy-4-[1-({[(5-methyl-3-phenylisoxazol-4-yl)amino]carbonyl}amino)ethyl]benzamide]
IC50 [1]: 100 to 500 nM

Cc1ccc(NC(=O)N[C@@H](c2ccc(C(=O)NO)cc2)C(C)C)cc1C [Compound I-512, 4-[(1R)-1-({[(3,4-dimethylphenyl)amino]carbonyl}amino)-2-methylpropyl]-N-hydroxybenzamide]
IC50 [1]: < 100 nM

Cc1c(C(=O)N[C@@H](c2ccc(C(=O)NO)cc2)C(C)C)sc2ccccc12 [Compound I-307, N-((1R)-1-{4-[(hydroxyamino)carbonyl]phenyl}-2-methylpropyl)-3-methyl-1-benzothiophene-2-carboxamide]
IC50 [1]: < 100 nM

O=C(NO)c1ccc([C@H](NC(=O)c2cc3ccccc3o2)C(F)(F)F)cc1 [Compound I-400, N-((1S)-2,2,2-trifluoro-1-{4-[(hydroxyamino)carbonyl]phenyl}ethyl)-1-benzofuran-2-carboxamide]
IC50 [1]: < 100 nM

Cc1c(C(=O)NC(c2ccc(C(=O)NO)cc2)C(C)(C)C)cnn1-c1ccccc1 (stereo not shown) [Compound I-182, N-(1-{4-[(hydroxyamino)carbonyl]phenyl}-2,2-dimethylpropyl)-5-methyl-1-phenyl-1H-pyrazole-4-carboxamide]
IC50 [1]: 100 to 500 nM

CCC[C@@H](NC(=O)c1ccc(OC)cc1)c1ccc(C(=O)NO)cc1 [Compound I-146, N-((1R)-1-{4-[(hydroxyamino)carbonyl]phenyl}butyl)-4-methoxybenzamide]
IC50 [1]: < 100 nM

CC(NC(=O)c1ccc(C(F)(F)F)cc1)c1cccc(C(=O)NO)c1 (stereo not shown) [Compound I-151, N-hydroxy-3-(1-{[4-(trifluoromethyl)benzoyl]amino}ethyl)benzamide]
IC50 (bin: greater than 500 nM and less than 1 μM (lower bound in nM, upper bound in μM)): 500 to 1000 nM

CC(NC(=O)c1ccc(Cl)cc1)c1ccc(C(=O)NO)cc1 (stereo not shown) [Compound I-136, 4-chloro-N-(1-{4-[(hydroxyamino)carbonyl]phenyl}ethyl)benzamide]
IC50 [1]: < 100 nM

CC(NC(=O)Nc1ccc(C(F)(F)F)cc1Cl)c1ccc(C(=O)NO)cc1 (stereo not shown) [Compound I-163, 4-{1-[({[2-chloro-4-(trifluoromethyl)phenyl]amino}carbonyl)amino]ethyl}-N-hydroxybenzamide]
IC50 [1]: < 100 nM

CC(C)C(NC(=O)c1cc2ccccc2s1)c1ccc(C(=O)NO)cc1 (stereo not shown) [Compound I-94, N-(1-{4-[(hydroxyamino)carbonyl]phenyl}-2-methylpropyl)-1-benzothiophene-2-carboxamide]
IC50 [1]: < 100 nM

CCC[C@@H](NC(=O)c1ccc(-c2ccccc2)cc1)c1ccc(C(=O)NO)cc1 [Compound I-274, N-((1R)-1-{4-[(hydroxyamino)carbonyl]phenyl}butyl)biphenyl-4-carboxamide]
IC50 [1]: < 100 nM

CC(NC(=O)c1cccc2c1OCC2)c1ccc(C(=O)NO)cc1 (stereo not shown) [Compound I-134, N-(1-{4-[(hydroxyamino)carbonyl]phenyl}ethyl)-2,3-dihydro-1-benzofuran-7-carboxamide]
IC50 [1]: < 100 nM

Cc1c(C(=O)N[C@@H](c2ccc(C(=O)NO)cc2)C(F)(F)F)oc2ccccc12 [Compound I-304, 3-methyl-N-((1S)-2,2,2-trifluoro-1-{4-[(hydroxyamino)carbonyl]phenyl}ethyl)-1-benzofuran-2-carboxamide]
IC50 [1]: < 100 nM

CC(NC(=O)c1cn2ccccc2n1)c1ccc(C(=O)NO)cc1 (stereo not shown) [Compound I-125, N-(1-{4-[(hydroxyamino)carbonyl]phenyl}ethyl)imidazo[1,2-a]pyridine-2-carboxamide]
IC50 [1]: < 100 nM

CC(NC(=O)Cc1cccc(C(F)(F)F)c1)c1cccc(C(=O)NO)c1 (stereo not shown) [Compound I-314, N-hydroxy-3-[1-({[3-(trifluoromethyl)phenyl]acetyl}amino)ethyl]benzamide]
IC50 (bin: greater than 1 μM): > 1000 nM

Cc1oc(-c2ccccc2)nc1CC(=O)NC(c1ccc(C(=O)NO)cc1)C(C)C (stereo not shown) [Compound I-48, N-hydroxy-4-(2-methyl-1-{[(5-methyl-2-phenyl-1,3-oxazol-4-yl)acetyl]amino}propyl)benzamide]
IC50 [1]: 100 to 500 nM
